Tests used:
Type in all cases: in vivo
[1] = system: Raphanus raphanistrum; assay: Control of Raphanus raphanistrum weed by asulam alone, with adjuvant, with additional herbicide (Example 2); settings: 4500 g a.i/ha
Description: The effect of application of asulam alone, asulam along with an adjuvant, and asulam along with an additional herbicide was observed on the growth of Raphanus raphanistrum weed at 42, 49, 56 and 63 DAA (days after application). The percentage (%) control of weeds was evaluated to assess the efficacy of the compositions and the same has been disclosed in Table 2. Untreated control was also compared, wherein no herbicidal composition was applied and thus, no control of weeds was observed.

[2] = system: Eleusine indica; assay: Control of weeds at pre-emergence stage (Example 9)
Excerpt: (§1) The effect of application of asulam was observed on the growth of weeds at pre-emergence stage for different application rates. The percentage (%) control of weeds has been evaluated and disclosed in Table 9.

[3] = system: Digitaria insularis; assay: as above
Excerpt: as §1

[4] = system: Ipomoea hederifolia; assay: Control of Ipomoea hederifolia weed at different application rates (Example 6)
Excerpt: The effect of application of asulam was observed on the growth of Ipomoea hederifolia weed at 21, 28 and 35 DAA (days after application) at different application rates. The percentage (%) control of weeds has been evaluated and disclosed in Table 6.

[5] = system: Ambrosia artemisifolia; assay: Control of Ambrosia artemisifolia weed at different application rates (Example 4)
Excerpt: The effect of application of asulam was observed on the growth of Ambrosia artemisifolia weed at 28, 35 and 49 DAA (days after application) at different application rates. The percentage (%) control of weeds has been evaluated and disclosed in Table 4.

[6] = system: Raphanus raphanistrum; assay: Control of Raphanus raphanistrum weed at different application rates (Example 7)
Excerpt: The effect of application of asulam was observed on the growth of Raphanus raphanistrum weed at 14, 21 and 28 DAA (days after application) at different application rates. The percentage (%) control of weeds has been evaluated and disclosed in Table 7.

[7] = system: Megathyrsus maximus; assay: Control of Megathyrsus maximus weed at different application rates (Example 5); settings: 3200 g a.i/ha; 14 DAA
Excerpt: The effect of application of asulam was observed on the growth of Megathyrsus maximus weed at 14 and 21 DAA (days after application) at different application rates. The percentage (%) control of weeds has been evaluated and disclosed in Table 5.

Compound: COC(=O)NS(=O)(=O)c1ccc(N)cc1 [Asulam, asulam]
- Control of Raphanus raphanistrum ([1]; 42 DAA): 71.3%
- Control of Raphanus raphanistrum ([1]; 49 DAA): 68.8%
- Control of Raphanus raphanistrum ([1]; 56 DAA): 66.3%
- percentage (%) control of weeds ([2]; 1200 g a.i/ha, 28 DAA): 83%
- percentage (%) control of weeds ([2]; 1200 g a.i/ha, 35 DAA): 78%
- percentage (%) control of weeds ([2]; 1200 g a.i/ha, 49 DAA): 99%
- percentage (%) control of weeds ([2]; 1500 g a.i/ha, 28 DAA): 88%
- percentage (%) control of weeds ([2]; 1500 g a.i/ha, 35 DAA): 88%
- percentage (%) control of weeds ([2]; 1500 g a.i/ha, 49 DAA): 99%
- percentage (%) control of weeds ([2]; 1800 g a.i/ha, 28 DAA): 90%
- percentage (%) control of weeds ([2]; 1800 g a.i/ha, 35 DAA): 91%
- percentage (%) control of weeds ([2]; 1800 g a.i/ha, 49 DAA): 100%
- percentage (%) control of weeds ([2]; 2250 g a.i/ha, 28 DAA): 92%
- percentage (%) control of weeds ([2]; 2250 g a.i/ha, 35 DAA): 93%
- percentage (%) control of weeds ([2]; 2250 g a.i/ha, 49 DAA): 100%
- percentage (%) control of weeds ([2]; 2500 g a.i/ha, 28 DAA): 91%
- percentage (%) control of weeds ([2]; 2500 g a.i/ha, 35 DAA): 92%
- percentage (%) control of weeds ([2]; 2500 g a.i/ha, 49 DAA): 100%
- percentage (%) control of weeds ([3]; 1000 g a.i/ha, 28 DAA): 94%
- percentage (%) control of weeds ([3]; 1000 g a.i/ha, 35 DAA): 98%
- percentage (%) control of weeds ([3]; 1000 g a.i/ha, 49 DAA): 100%
- percentage (%) control of weeds ([3]; 1200 g a.i/ha, 28 DAA): 98%
- percentage (%) control of weeds ([3]; 1200 g a.i/ha, 35 DAA): 100%
- percentage (%) control of weeds ([3]; 1200 g a.i/ha, 49 DAA): 100%
- percentage (%) control of weeds ([3]; 1500 g a.i/ha, 28 DAA): 99%
- percentage (%) control of weeds ([3]; 1500 g a.i/ha, 35 DAA): 100%
- percentage (%) control of weeds ([3]; 1500 g a.i/ha, 49 DAA): 100%
- percentage (%) control of weeds ([3]; 1800 g a.i/ha, 28 DAA): 99%
- percentage (%) control of weeds ([3]; 1800 g a.i/ha, 35 DAA): 100%
- percentage (%) control of weeds ([3]; 1800 g a.i/ha, 49 DAA): 100%
- percentage (%) control of weeds ([3]; 2250 g a.i/ha, 28 DAA): 100%
- percentage (%) control of weeds ([3]; 2250 g a.i/ha, 35 DAA): 100%
- percentage (%) control of weeds ([3]; 2250 g a.i/ha, 49 DAA): 100%
- percentage (%) control of weeds ([3]; 2500 g a.i/ha, 28 DAA): 99%
- percentage (%) control of weeds ([3]; 2500 g a.i/ha, 35 DAA): 100%
- percentage (%) control of weeds ([3]; 2500 g a.i/ha, 49 DAA): 100%
- Control of Ipomoea hederifolia ([4]; 1800 g a.i/ha, 21 DAA): 63%
- Control of Ipomoea hederifolia ([4]; 1800 g a.i/ha, 28 DAA): 77%
- Control of Ipomoea hederifolia ([4]; 1800 g a.i/ha, 35 DAA): 76%
- Control of Ipomoea hederifolia ([4]; 2250 g a.i/ha, 21 DAA): 71%
- Control of Ipomoea hederifolia ([4]; 2250 g a.i/ha, 28 DAA): 83%
- Control of Ipomoea hederifolia ([4]; 2250 g a.i/ha, 35 DAA): 85%
- Control of Ipomoea hederifolia ([4]; 2500 g a.i/ha, 21 DAA): 70%
- Control of Ipomoea hederifolia ([4]; 2500 g a.i/ha, 28 DAA): 84%
- Control of Ipomoea hederifolia ([4]; 2500 g a.i/ha, 35 DAA): 88%
- Control of Ambrosia Artemisifolia ([5]; 1200 g a.i/ha, 28 DAA): 86%
- Control of Ambrosia Artemisifolia ([5]; 1200 g a.i/ha, 35 DAA): 87%
- Control of Ambrosia Artemisifolia ([5]; 1200 g a.i/ha, 49 DAA): 90%
- Control of Ambrosia Artemisifolia ([5]; 1500 g a.i/ha, 28 DAA): 91%
- Control of Ambrosia Artemisifolia ([5]; 1500 g a.i/ha, 35 DAA): 90%
- Control of Ambrosia Artemisifolia ([5]; 1500 g a.i/ha, 49 DAA): 91%
- Control of Ambrosia Artemisifolia ([5]; 2250 g a.i/ha, 28 DAA): 93%
- Control of Ambrosia Artemisifolia ([5]; 2250 g a.i/ha, 35 DAA): 94%
- Control of Ambrosia Artemisifolia ([5]; 2250 g a.i/ha, 49 DAA): 99%
- Control of Ambrosia Artemisifolia ([5]; 2500 g a.i/ha, 28 DAA): 92%
- Control of Ambrosia Artemisifolia ([5]; 2500 g a.i/ha, 35 DAA): 93%
- Control of Ambrosia Artemisifolia ([5]; 2500 g a.i/ha, 49 DAA): 99%
- Control of Raphanus raphanistrum ([6]; 1800 g a.i/ha, 14 DAA): 61%
- Control of Raphanus raphanistrum ([6]; 1800 g a.i/ha, 21 DAA): 69%
- Control of Raphanus raphanistrum ([6]; 1800 g a.i/ha, 28 DAA): 82%
- Control of Raphanus raphanistrum ([6]; 2250 g a.i/ha, 14 DAA): 63%
- Control of Raphanus raphanistrum ([6]; 2250 g a.i/ha, 21 DAA): 73%
- Control of Raphanus raphanistrum ([6]; 2250 g a.i/ha, 28 DAA): 84%
- Control of Raphanus raphanistrum ([6]; 2500 g a.i/ha, 14 DAA): 66%
- Control of Raphanus raphanistrum ([6]; 2500 g a.i/ha, 21 DAA): 77%
- Control of Raphanus raphanistrum ([6]; 2500 g a.i/ha, 28 DAA): 88%
- Control of Megathyrsus maximus [7]: 79%
